Data on five compounds can be found in EP2386552A1, “Process for the preparation of (R) a-lipoic acid salts, their formulation and use in pharmaceutical compositions, in form of tablets containing them” (priority 2010, dated 2011).

Data set [1] is described as follows: pH of 1 % solution in water. The class given is physicochemical.
The next data set is described as follows: Powder apparent density. To be noted: in g/mL. Format: physicochemical. The text has this: As solvents, 1-4 carbon atom aliphatic alcohols are used, having linear or branched chain, pure or denaturated by usual denaturants, optionally in a mixture with water or among them or with the mother liquors coming from a previous production cycle that used the same raw materials. The use of ketones, like acetone, as such, (Ex.7, 9) or in a mixture with some of the above mentioned alcohols (Ex.11, 12), produces an amorphous precipitate not suitable to be utilized for the direct compression because of the powder very low density. For industrial purpose a powder having low density (<0,2 g/mL) requires an additional operation (compactation / dry granulation / humid granulation) to produce tablets.

Data set [2] can be described thus: Release test of tablets (Eur. Ph. 2.9.3, blade stirrer, artificial gastric buffer without pepsin). The class given is physicochemical. The note with it: tablets containing the salt; compared with tablets containing other known salts. The procedure: The release test was carried out according to Eur. Ph. 2.9.3 with a blade stirrer (100 rpm) in 1000 mL of artificial gastric buffer without pepsin (Eur. […] The title is carried out by drawing 10 mL of medium, filtering on paper then evaluating the acid content by the spectrophotometer at the wavelength of 330 nm versus standard. The tablet hardness (N) is evaluated by a Schleuninger 6D durometer. The compression force was settled to obtain three intervals of tablet hardness: 40-90 N; 90-120Ne> […]. Table 2 : release of (R) α-lipoic acid tablet

The nature of data set [3]: Absorption and bioavailability of tablets. Format: in vivo. To be noted: formulated in tablet; compared with the corresponding tromethamine salt and lipoic acid as a racemate at equivalent doses.

Regarding `O=C(O)CCCC[C@@H]1CCSS1` [Ex. 1, Trometamol (R) α-lipoate, reference compound], the “pH 1 % in water” value in data set [1] was 6.6. Further, in “Powder apparent density”, the Powder apparent density is listed as 0.5-0.7.

With `O=C(O)CCCC[C@@H]1CCSS1` [Ex. 6, Cystamine (R) α-lipoate], the “pH 1 % in water” value in data set [1] amounted to 6.6. In data set [2], the dissolution profile entry was “dissolution profile better”.

`O=C(O)CCCC[C@@H]1CCSS1` [Ex. 7, Diazobicyclo [2,2,2] octane (R) α-lipoate]: the “pH 1 % in water” value in data set [1] is on record as 5.2. Besides, the Powder apparent density in “Powder apparent density” was 0.4-0.6. Moreover, the dissolution profile entry in data set [2] is recorded as “dissolution profile better”.

Take `O=C(O)CCCC[C@@H]1CCSS1` [Ex. 8, Piperazine (R) α-lipoato (2:1)]: the “pH 1 % in water” value in data set [1] came to 5.5. The Powder apparent density in the data set “Powder apparent density” is on record as 0.5-0.6. Besides, the absorption and bioavailability entry in data set [3] was “better absorption and bioavailability”. For the same compound, in data set [2], the dissolution profile result is reported as “dissolution profile better”.

Take `O=C(O)CCCC[C@@H]1CCSS1` [Ex. 12, Piperazine (R) α-lipoate (1:1)]: the “pH 1 % in water” value in data set [1] turned out to be 7.2.
